# Measured values: publication PMC3527388, “Transport Mechanisms and Their Pathology-Induced Regulation Govern Tyrosine Kinase Inhibitor Delivery in Rheumatoid Arthritis” (PLoS ONE, 2012)
# Target: T1, novel organic cation transporter 1 (hOCTN1) (Homo sapiens, UniProt Q9H015)
# T1 construct: gene SLC22A4
# T1 sequence (Q9H015 1-551): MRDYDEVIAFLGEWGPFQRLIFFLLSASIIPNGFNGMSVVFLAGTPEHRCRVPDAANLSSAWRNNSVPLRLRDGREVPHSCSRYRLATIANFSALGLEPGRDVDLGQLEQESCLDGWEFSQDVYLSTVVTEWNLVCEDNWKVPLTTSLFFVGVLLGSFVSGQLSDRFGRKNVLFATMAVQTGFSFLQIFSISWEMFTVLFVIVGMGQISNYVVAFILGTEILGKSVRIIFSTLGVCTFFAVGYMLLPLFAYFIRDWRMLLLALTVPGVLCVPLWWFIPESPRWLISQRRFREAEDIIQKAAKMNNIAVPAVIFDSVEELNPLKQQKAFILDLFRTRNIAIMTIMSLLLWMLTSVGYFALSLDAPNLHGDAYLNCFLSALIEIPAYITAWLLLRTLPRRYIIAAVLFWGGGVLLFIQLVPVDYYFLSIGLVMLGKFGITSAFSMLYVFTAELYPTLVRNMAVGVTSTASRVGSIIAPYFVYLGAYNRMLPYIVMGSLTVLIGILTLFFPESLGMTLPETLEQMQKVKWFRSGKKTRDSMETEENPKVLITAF
# Assay: ASP+ uptake in HEK293 cells with doxycycline-induced versus uninduced hOCTN1
# Format: cell-based
# Source text: ASP+ uptake in HEK293 cells with doxycycline-induced versus uninduced hOCTN1 on novel organic cation transporter 1 (hOCTN1) | ASP^+ is a substrate for hOCTN1. Comparison of ASP^+ uptake by HEK293 cells stably transfected
structure (smiles),measurement,value
"CN(C)c1ccc(C=Cc2cc[n+](C)cc2)cc1 [ASP+, 4-(4-(Dimethylamino)Styryl)-N-methylpyridinium]",ASP+ uptake in HEK293 cells with doxycycline-induced versus uninduced hOCTN1,ASP^+ is a substrate for hOCTN1. Comparison of ASP^+ uptake by HEK293 cells stably transfected
